Data from article PMC3469269 (ACS medicinal chemistry letters, 2012).

Columns and labels:
[1] = target: hDAT (Homo sapiens, UniProt Q01959); test: Inhibition of [3H]-WIN-35,428 binding to hDAT in N2A neuroblastoma cells
[2] = tested on: DAT; conditions: ref Vaughan et al., unpublished observations; cited from earlier work
[3] = tested on: DAT; conditions: cited from earlier work

Chain of hDAT (Q01959 whole entry): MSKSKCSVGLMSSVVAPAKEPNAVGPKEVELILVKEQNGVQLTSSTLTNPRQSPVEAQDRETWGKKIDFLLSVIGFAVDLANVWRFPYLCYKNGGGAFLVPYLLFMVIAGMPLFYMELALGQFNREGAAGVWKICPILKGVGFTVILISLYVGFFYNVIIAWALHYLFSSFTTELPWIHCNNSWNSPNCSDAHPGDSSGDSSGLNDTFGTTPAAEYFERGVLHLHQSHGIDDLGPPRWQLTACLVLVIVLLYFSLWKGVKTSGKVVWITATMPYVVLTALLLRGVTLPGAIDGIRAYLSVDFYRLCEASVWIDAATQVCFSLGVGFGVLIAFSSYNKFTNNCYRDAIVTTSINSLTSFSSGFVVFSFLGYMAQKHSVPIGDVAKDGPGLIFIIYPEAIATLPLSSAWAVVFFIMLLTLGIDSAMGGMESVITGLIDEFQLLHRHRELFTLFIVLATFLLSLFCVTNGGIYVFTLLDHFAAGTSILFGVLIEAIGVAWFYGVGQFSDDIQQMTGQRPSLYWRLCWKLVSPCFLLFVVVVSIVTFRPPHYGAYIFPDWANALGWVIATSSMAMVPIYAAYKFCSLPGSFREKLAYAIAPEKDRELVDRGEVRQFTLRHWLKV

SMILES: COC(=O)[C@H](c1ccc(N)c(I)c1)[C@H]1CCCCN1 (racemic) [(±)-14]
- fold decrease in binding affinity for hDAT ([1]; relative to aniline (±)-13 (addition of 3-I)): ~ 1.4 fold

SMILES: COC(=O)[C@H](c1ccc(N=[N+]=[N-])c(I)c1)[C@H]1CCCCN1 (racemic) [(±)-6, (±)-threo-4-Azido-3-iodomethylphenidate]
- fold increase in hDAT affinity ([1]; relative to (±)-14 (aniline replaced by azide)): ~ 2.3 fold

SMILES: COC(=O)C1C(c2ccc(N=[N+]=[N-])c(I)c2)CC2CCC1N2C (stereo not shown) [compound 5, 3-(4′-azido-3′-iodo-phenyl)-8-methyl-8-aza-bicyclo-[3.2.1]octane-2-carboxylic acid methyl ester]
- labeling of the DAT in immunoprecipitation and proteolysis experiments [2]: fails to label the DAT
- binding to the DAT [3]: high affinity, wash-resistant binding
